Reference: ChEMBL document CHEMBL3044783, “Effects of pyrrolizidine alkaloids on the performance of plant-parasitic and free-living nematodes” (Pest Manag Sci, 2009)
In brackets after ≈: the same amount, converted by molar mass. Activity calls are given as the source filed them. The rule behind the calls is not given here.

Tests used:
Meloidogyne incognita [1] = assay: Nematicidal activity against juvenile stage of Meloidogyne incognita (root-knot nematode) assessed as inhibition of mobility incubated for 168 hr followed by compound wash out measured after 24 hr; format: functional
Heterodera schachtii [2] = assay: Nematicidal activity against juvenile stage of Heterodera schachtii assessed as inhibition of mobility incubated for 168 hr followed by compound wash out measured after 24 hr; format: functional
Rhabditis sp. [3] = assay: Nematicidal activity against juvenile stage of Rhabditis sp. assessed as inhibition of mobility after 168 hr; format: functional
Heterodera schachtii [4] = assay: Nematicidal activity against juvenile stage of Heterodera schachtii assessed as inhibition of mobility after 20 hr; format: functional
Rhabditis sp. [5] = assay: Nematicidal activity against juvenile stage of Rhabditis sp. assessed as reduction of nematode development at 0.01 mg/mL after 72 hr by stereomicroscopic analysis (reference value: 62%); format: functional; design: scale not given: the % may be the effect or the level left
Rhabditis sp. [6] = assay: Nematicidal activity against juvenile stage of Rhabditis sp. assessed as reduction of fecundity at 0.1 mg/mL after 72 hr by stereomicroscopic analysis relative to untreated control; format: functional, organism-based
Heterodera schachtii [7] = assay: Nematicidal activity against juvenile stage of Heterodera schachtii assessed as inhibition of mobility after 168 hr; format: functional
Rhabditis sp. [8] = assay: Nematicidal activity against juvenile stage of Rhabditis sp. assessed as reduction of nematode development at 1 mg/mL after 72 hr by stereomicroscopic analysis (reference value: 62%); format: functional; design: scale not given: the % may be the effect or the level left
Rhabditis sp. [9] = assay: Nematicidal activity against juvenile stage of Rhabditis sp. assessed as reduction of nematode development at 0.1 mg/mL after 72 hr by stereomicroscopic analysis (reference value: 62%); format: functional; design: scale not given: the % may be the effect or the level left
Pratylenchus penetrans [10] = assay: Nematicidal activity against juvenile stage of Pratylenchus penetrans assessed as inhibition of mobility after 20 hr; format: functional
Meloidogyne incognita [11] = assay: Nematicidal activity against juvenile stage of Meloidogyne incognita (root-knot nematode) assessed as inhibition of mobility after 20 hr; format: functional
Rhabditis sp. [12] = assay: Nematicidal activity against juvenile stage of Rhabditis sp. assessed as inhibition of mobility after 20 hr; format: functional, organism-based
Meloidogyne incognita [13] = assay: Nematicidal activity against juvenile stage of Meloidogyne incognita (root-knot nematode) assessed as inhibition of mobility after 168 hr; format: functional
Pratylenchus penetrans [14] = assay: Nematicidal activity against juvenile stage of Pratylenchus penetrans assessed as inhibition of mobility after 168 hr; format: functional
Pratylenchus penetrans [15] = assay: Nematicidal activity against juvenile stage of Pratylenchus penetrans assessed as inhibition of mobility incubated for 168 hr followed by compound wash out measured after 24 hr; format: functional
Meloidogyne incognita [16] = assay: Repellent activity against juvenile stage of Meloidogyne incognita (root-knot nematode) at 1 mg/mL after 40 hr by stereomicroscopic analysis (reference value: 51%); format: functional
Rhabditis sp. [17] = assay: Repellent activity against juvenile stage of Rhabditis sp. at 0.1 mg/mL after 40 hr by stereomicroscopic analysis (reference value: 50%); format: functional
Rhabditis sp. [18] = assay: Repellent activity against juvenile stage of Rhabditis sp. at 1 mg/mL after 20 hr by stereomicroscopic analysis (reference value: 48%); format: functional
Rhabditis sp. [19] = assay: Repellent activity against juvenile stage of Rhabditis sp. at 1 mg/mL after 40 hr by stereomicroscopic analysis (reference value: 50%); format: functional
Rhabditis sp. [20] = assay: Repellent activity against juvenile stage of Rhabditis sp. at 0.1 mg/mL after 20 hr by stereomicroscopic analysis (reference value: 48%); format: functional
[21] = Stability of the compound assessed as apperance of pyrroles at 5 mg/mL after 24 to 168 hr by thin layer chromatographic analysis under UV light and hot temperature; format: physicochemical
[22] = test system: Phasmarhabditis hermaphrodita; assay: Nematicidal activity against juvenile stage of Phasmarhabditis hermaphrodita of assessed as inhibition of mobility incubated for 168 hr followed by compound wash out measured after 24 hr; format: functional; details: Pellioditis hermaphrodita
[23] = Stability of the compound assessed as apperance of new pyrrolizidine alkaloids at 5 mg/mL after 24 to 168 hr by thin layer chromatographic analysis under cold temperature; format: physicochemical
Meloidogyne incognita [24] = assay: Repellent activity against juvenile stage of Meloidogyne incognita (root-knot nematode) at 0.1 mg/mL after 20 hr by stereomicroscopic analysis (reference value: 50%); format: functional
[25] = Stability of the compound assessed as conversion of N-oxide to free base at 5 mg/mL after 24 to 168 hr by thin layer chromatographic analysis under hot temperature; format: physicochemical
[26] = test system: Phasmarhabditis hermaphrodita; assay: Nematicidal activity against juvenile stage of Phasmarhabditis hermaphrodita of assessed as inhibition of mobility after 168 hr; format: functional; details: Pellioditis hermaphrodita
Meloidogyne incognita [27] = assay: Ovicidal activity against Meloidogyne incognita (root-knot nematode) assessed as egg hatching at 1 mg/mL after 336 hr (reference value: 54%); format: functional
[28] = Stability of the compound assessed as conversion of N-oxide to free base at 5 mg/mL after 24 to 168 hr by thin layer chromatographic analysis under UV light and hot temperature; format: physicochemical
[29] = Stability of the compound assessed as conversion of N-oxide to free base at 5 mg/mL after 24 to 168 hr by thin layer chromatographic analysis under cold temperature; format: physicochemical
Meloidogyne incognita [30] = assay: Ovicidal activity against Meloidogyne incognita (root-knot nematode) assessed as egg hatching at 1 mg/mL after 24 hr (reference value: 3%); format: functional
[31] = Stability of the compound assessed as apperance of pyrroles at 5 mg/mL after 24 to 168 hr by thin layer chromatographic analysis under UV light and cold temperature; format: physicochemical
[32] = Stability of the compound assessed as apperance of pyrroles at 5 mg/mL after 24 to 168 hr by thin layer chromatographic analysis under cold temperature; format: physicochemical
Meloidogyne incognita [33] = assay: Repellent activity against juvenile stage of Meloidogyne incognita (root-knot nematode) at 0.1 mg/mL after 40 hr by stereomicroscopic analysis (reference value: 51%); format: functional
Meloidogyne incognita [34] = assay: Repellent activity against juvenile stage of Meloidogyne incognita (root-knot nematode) at 1 mg/mL after 20 hr by stereomicroscopic analysis (reference value: 50%); format: functional
[35] = test system: Phasmarhabditis hermaphrodita; assay: Nematicidal activity against juvenile stage of Phasmarhabditis hermaphrodita of assessed as inhibition of mobility after 20 hr; format: functional, organism-based
[36] = Stability of the compound assessed as apperance of new pyrrolizidine alkaloids at 5 mg/mL after 24 to 168 hr by thin layer chromatographic analysis under hot temperature; format: physicochemical
[37] = Stability of the compound assessed as conversion of N-oxide to free base at 5 mg/mL after 24 to 168 hr by thin layer chromatographic analysis under UV light and cold temperature; format: physicochemical
[38] = Stability of the compound assessed as apperance of new pyrrolizidine alkaloids at 5 mg/mL after 24 to 168 hr by thin layer chromatographic analysis under UV light and hot temperature; format: physicochemical
[39] = Stability of the compound assessed as apperance of pyrroles at 5 mg/mL after 24 to 168 hr by thin layer chromatographic analysis under hot temperature; format: physicochemical
[40] = Stability of the compound assessed as apperance of new pyrrolizidine alkaloids at 5 mg/mL after 24 to 168 hr by thin layer chromatographic analysis under UV light and cold temperature; format: physicochemical

Q: With CO[C@H](C)[C@](O)(C(=O)OCC1=CC[N+]2([O-])CC[C@H](O)[C@@H]12)C(C)C (stereo partly drawn) [HELIOTRINE N-OXIDE] as the compound, how does the MIC50 (Meloidogyne incognita [1]) read?
A: 1700 µg/mL (≈ 5.16 mM)

Q: What about the MIC50 (Heterodera schachtii [2]) of the same compound?
A: inactive

Q: And the MIC50 (Rhabditis sp. [3])?
A: inactive

Q: And the MIC50 (Heterodera schachtii [4])?
A: inactive

Q: What about the Activity (Rhabditis sp. [5]) of the same compound?
A: 68%

Q: And the Activity (Rhabditis sp. [6])?
A: Active

Q: What about the MIC50 (Heterodera schachtii [7]) of the same compound?
A: 77400 µg/mL (≈ 235 mM)

Q: And the Activity (Rhabditis sp. [8])?
A: 0%

Q: And the Activity (Rhabditis sp. [9])?
A: 55%

Q: What about the MIC50 (Pratylenchus penetrans [10]) of the same compound?
A: inactive

Q: What about the MIC50 (Meloidogyne incognita [11]) of the same compound?
A: 4800 µg/mL (≈ 14.6 mM)

Q: And the MIC50 (Rhabditis sp. [12])?
A: inactive

Q: What about the MIC50 (Meloidogyne incognita [13]) of the same compound?
A: 900 µg/mL (≈ 2.73 mM)

Q: What about the MIC50 (Pratylenchus penetrans [14]) of the same compound?
A: inactive

Q: What about the MIC50 (Pratylenchus penetrans [15]) of the same compound?
A: inactive

Q: For C[C@H]1C(=O)O[C@@H]2CC[N+]3([O-])CC=C(COC(=O)[C@](C)(O)[C@]1(C)O)[C@H]23 (stereo partly drawn) [MONOCROTALINE N-OXIDE], which MIC50 (Meloidogyne incognita [1]) is on record?
A: inactive

Q: And the MIC50 (Heterodera schachtii [2])?
A: 37100 µg/mL (≈ 109 mM)

Q: And the Repellency (Meloidogyne incognita [16])?
A: 56%

Q: What about the Repellency (Rhabditis sp. [17]) of the same compound?
A: 90%

Q: What about the Repellency (Rhabditis sp. [18]) of the same compound?
A: 95%

Q: What about the MIC50 (Rhabditis sp. [3]) of the same compound?
A: 21200 µg/mL (≈ 62.1 mM)

Q: What about the Repellency (Rhabditis sp. [19]) of the same compound?
A: 100%

Q: And the Repellency (Rhabditis sp. [20])?
A: 89%

Q: And the MIC50 (Heterodera schachtii [4])?
A: inactive

Q: And the Stability [21]?
A: Stable

Q: And the MIC50 [22]?
A: 17500 µg/mL (≈ 51.3 mM)

Q: What about the Stability [23] of the same compound?
A: Stable

Q: And the Repellency (Meloidogyne incognita [24])?
A: 52%

Q: What about the Stability [25] of the same compound?
A: Stable

Q: And the MIC50 [26]?
A: 13700 µg/mL (≈ 40.1 mM)

Q: And the Activity (Meloidogyne incognita [27])?
A: 16%

Q: What about the Stability [28] of the same compound?
A: Stable

Q: What about the MIC50 (Heterodera schachtii [7]) of the same compound?
A: 700 µg/mL (≈ 2.05 mM)

Q: And the Stability [29]?
A: Stable

Q: And the MIC50 (Pratylenchus penetrans [10])?
A: inactive

Q: And the Activity (Meloidogyne incognita [30])?
A: 7%

Q: And the Stability [31]?
A: Stable

Q: And the MIC50 (Meloidogyne incognita [11])?
A: inactive

Q: What about the Stability [32] of the same compound?
A: Stable

Q: What about the Repellency (Meloidogyne incognita [33]) of the same compound?
A: 51%

Q: And the Repellency (Meloidogyne incognita [34])?
A: 54%

Q: What about the MIC50 (Rhabditis sp. [12]) of the same compound?
A: inactive

Q: And the MIC50 (Meloidogyne incognita [13])?
A: inactive

Q: What about the MIC50 [35] of the same compound?
A: inactive

Q: And the Stability [36]?
A: Stable

Q: And the Stability [37]?
A: Stable

Q: What about the Stability [38] of the same compound?
A: Stable

Q: And the Stability [39]?
A: Stable

Q: What about the MIC50 (Pratylenchus penetrans [14]) of the same compound?
A: inactive

Q: What about the MIC50 (Pratylenchus penetrans [15]) of the same compound?
A: inactive

Q: What about the Stability [40] of the same compound?
A: Stable

Q: For C/C=C(/C)C(=O)O[C@H]1CC[N+]2([O-])CC=C(COC(=O)[C@](O)(C(C)C)[C@@H](C)OC)[C@H]12 (stereo partly drawn) [LASIOCARPINE N-OXIDE], which MIC50 (Meloidogyne incognita [1]) is on record?
A: inactive

Q: And the MIC50 (Heterodera schachtii [2])?
A: inactive

Q: What about the MIC50 (Heterodera schachtii [4]) of the same compound?
A: inactive

Q: What about the MIC50 (Heterodera schachtii [7]) of the same compound?
A: inactive

Q: And the MIC50 (Meloidogyne incognita [11])?
A: inactive

Q: And the MIC50 (Meloidogyne incognita [13])?
A: 84400 µg/mL (≈ 205 mM)

Q: Which MIC50 (Meloidogyne incognita [1]) does the source give for C/C=C1/C[C@@H](C)[C@@](C)(O)C(=O)OCC2=CC[N+]3([O-])CC[C@@H](OC1=O)[C@@H]23 (stereo partly drawn) [SENECIONINE N-OXIDE] here?
A: inactive

Q: What about the MIC50 (Heterodera schachtii [2]) of the same compound?
A: inactive

Q: What about the MIC50 (Heterodera schachtii [4]) of the same compound?
A: 7200 µg/mL (≈ 20.5 mM)

Q: And the MIC50 (Heterodera schachtii [7])?
A: 3400 µg/mL (≈ 9.68 mM)

Q: And the MIC50 (Meloidogyne incognita [11])?
A: inactive

Q: And the MIC50 (Meloidogyne incognita [13])?
A: 2900 µg/mL (≈ 8.25 mM)
